Test results reported in US12275731B2, “Azaindole inhibitors of wild-type and mutant forms of LRRK2” (DANA-FARBER CANCER INSTITUTE, INC., priority 2018, dated 2025).

How the values were obtained:
Assay in all cases: KinomeScan profiling
Format in all cases: binding
CSNK1A1 = CSNK1A1 (Homo sapiens, UniProt P48729); settings: CSNK1A1, 1 μM; read-out: % control
Outline: (§1)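 Compounds were screened at 1 μM in DMSO across a 468-kinase KinomeScan panel. Binding was expressed as % control, scaled between a positive control (0%) and DMSO (100%) using luminescence signal. A value under 35% counted as active.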

[1] = target: T1, ABL1(F317L)-nonphosphorylated (Homo sapiens, UniProt P00519, F317L); settings: read-out: % control
T1 construct: purchased KinomeScan®
Outline: as §1

NIK = NIK (Homo sapiens, UniProt Q99558); settings: read-out: % control
Sequence of NIK (Q99558 whole entry): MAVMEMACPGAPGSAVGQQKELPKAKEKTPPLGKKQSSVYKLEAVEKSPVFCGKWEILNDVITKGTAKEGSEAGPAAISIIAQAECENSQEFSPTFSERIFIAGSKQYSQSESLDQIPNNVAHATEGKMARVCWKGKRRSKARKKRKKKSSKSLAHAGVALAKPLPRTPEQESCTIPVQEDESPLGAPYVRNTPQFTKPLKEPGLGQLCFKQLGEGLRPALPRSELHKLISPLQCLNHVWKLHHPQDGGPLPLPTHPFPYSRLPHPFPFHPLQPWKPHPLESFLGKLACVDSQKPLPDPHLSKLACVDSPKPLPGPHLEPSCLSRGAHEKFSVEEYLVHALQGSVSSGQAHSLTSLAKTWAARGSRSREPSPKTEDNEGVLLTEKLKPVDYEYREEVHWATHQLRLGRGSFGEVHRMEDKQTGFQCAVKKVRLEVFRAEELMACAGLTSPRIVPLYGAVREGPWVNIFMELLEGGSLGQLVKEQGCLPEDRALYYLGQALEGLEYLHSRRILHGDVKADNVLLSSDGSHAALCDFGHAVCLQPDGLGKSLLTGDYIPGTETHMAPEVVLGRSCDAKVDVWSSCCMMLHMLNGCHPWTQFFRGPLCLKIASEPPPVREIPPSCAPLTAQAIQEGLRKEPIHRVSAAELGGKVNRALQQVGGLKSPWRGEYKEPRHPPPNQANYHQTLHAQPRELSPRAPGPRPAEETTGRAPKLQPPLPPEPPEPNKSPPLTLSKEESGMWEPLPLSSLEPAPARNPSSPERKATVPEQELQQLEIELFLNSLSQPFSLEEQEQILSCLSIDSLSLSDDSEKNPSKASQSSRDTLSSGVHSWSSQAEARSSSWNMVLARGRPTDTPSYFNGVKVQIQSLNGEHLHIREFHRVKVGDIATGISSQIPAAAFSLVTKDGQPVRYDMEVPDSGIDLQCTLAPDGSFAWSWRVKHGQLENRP
Outline: as §1

LKB1 = target: T2, LKB1 (Homo sapiens, UniProt Q15831); settings: LKB1, 1 μM; read-out: % control
T2 sequence (Q15831 1-433): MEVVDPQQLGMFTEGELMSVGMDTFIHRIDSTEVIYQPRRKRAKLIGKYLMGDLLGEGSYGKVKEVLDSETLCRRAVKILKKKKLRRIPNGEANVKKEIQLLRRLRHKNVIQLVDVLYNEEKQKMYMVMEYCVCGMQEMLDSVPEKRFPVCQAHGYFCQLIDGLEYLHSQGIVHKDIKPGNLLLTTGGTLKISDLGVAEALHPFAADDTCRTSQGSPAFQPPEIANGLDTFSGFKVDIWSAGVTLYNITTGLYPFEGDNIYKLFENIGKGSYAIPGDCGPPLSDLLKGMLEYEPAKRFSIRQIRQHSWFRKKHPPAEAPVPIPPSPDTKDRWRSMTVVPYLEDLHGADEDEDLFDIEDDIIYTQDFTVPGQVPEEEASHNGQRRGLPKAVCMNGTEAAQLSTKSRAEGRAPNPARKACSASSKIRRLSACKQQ
Outline: as §1

AMPK-alpha2 = target: T3, AMPK-alpha2 (Homo sapiens, UniProt P54646); settings: AMPK-alpha2, 1 μM; read-out: % control
T3 construct: purchased KinomeScan®
T3 sequence (P54646 whole entry): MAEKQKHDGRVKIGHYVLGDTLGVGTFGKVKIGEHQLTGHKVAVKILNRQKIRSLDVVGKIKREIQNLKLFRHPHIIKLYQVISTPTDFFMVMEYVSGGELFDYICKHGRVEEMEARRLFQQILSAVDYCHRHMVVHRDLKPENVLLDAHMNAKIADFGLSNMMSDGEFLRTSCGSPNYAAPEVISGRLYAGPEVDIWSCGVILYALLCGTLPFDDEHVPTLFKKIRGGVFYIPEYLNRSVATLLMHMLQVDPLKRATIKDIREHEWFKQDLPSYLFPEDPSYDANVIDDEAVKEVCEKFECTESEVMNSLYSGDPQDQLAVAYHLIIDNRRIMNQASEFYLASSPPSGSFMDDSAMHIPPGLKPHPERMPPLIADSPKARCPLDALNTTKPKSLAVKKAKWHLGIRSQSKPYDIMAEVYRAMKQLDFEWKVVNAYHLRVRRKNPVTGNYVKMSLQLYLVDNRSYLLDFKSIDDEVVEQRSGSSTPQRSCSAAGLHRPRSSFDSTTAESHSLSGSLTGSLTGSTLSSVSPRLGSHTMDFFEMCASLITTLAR
Outline: as §1

[2] = target: T4, ABL1(Y253F)-phosphorylated (Homo sapiens, UniProt P00519, Y253F); settings: read-out: % control
T4 construct: purchased KinomeScan®
Outline: as §1

SGK2 = target: T5, SGK2 (Homo sapiens, UniProt Q9HBY8); settings: SGK2, 1 μM; read-out: % control
T5 construct: purchased KinomeScan® (panel service)
T5 sequence (Q9HBY8 1-367): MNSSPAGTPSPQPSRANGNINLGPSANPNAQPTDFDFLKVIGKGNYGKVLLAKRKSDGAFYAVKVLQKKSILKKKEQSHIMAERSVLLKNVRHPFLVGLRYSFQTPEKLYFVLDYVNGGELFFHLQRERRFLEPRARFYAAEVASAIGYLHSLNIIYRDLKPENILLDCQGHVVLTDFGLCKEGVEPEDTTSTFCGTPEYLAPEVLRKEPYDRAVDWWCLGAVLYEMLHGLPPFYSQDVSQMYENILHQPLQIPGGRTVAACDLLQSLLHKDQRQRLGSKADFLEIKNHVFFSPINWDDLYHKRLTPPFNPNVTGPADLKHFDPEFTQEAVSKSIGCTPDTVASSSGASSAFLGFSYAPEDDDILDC
Outline: as §1

ZAK = ZAK (Homo sapiens, UniProt Q9NYL2); settings: read-out: % control
Sequence of ZAK (Q9NYL2 whole entry): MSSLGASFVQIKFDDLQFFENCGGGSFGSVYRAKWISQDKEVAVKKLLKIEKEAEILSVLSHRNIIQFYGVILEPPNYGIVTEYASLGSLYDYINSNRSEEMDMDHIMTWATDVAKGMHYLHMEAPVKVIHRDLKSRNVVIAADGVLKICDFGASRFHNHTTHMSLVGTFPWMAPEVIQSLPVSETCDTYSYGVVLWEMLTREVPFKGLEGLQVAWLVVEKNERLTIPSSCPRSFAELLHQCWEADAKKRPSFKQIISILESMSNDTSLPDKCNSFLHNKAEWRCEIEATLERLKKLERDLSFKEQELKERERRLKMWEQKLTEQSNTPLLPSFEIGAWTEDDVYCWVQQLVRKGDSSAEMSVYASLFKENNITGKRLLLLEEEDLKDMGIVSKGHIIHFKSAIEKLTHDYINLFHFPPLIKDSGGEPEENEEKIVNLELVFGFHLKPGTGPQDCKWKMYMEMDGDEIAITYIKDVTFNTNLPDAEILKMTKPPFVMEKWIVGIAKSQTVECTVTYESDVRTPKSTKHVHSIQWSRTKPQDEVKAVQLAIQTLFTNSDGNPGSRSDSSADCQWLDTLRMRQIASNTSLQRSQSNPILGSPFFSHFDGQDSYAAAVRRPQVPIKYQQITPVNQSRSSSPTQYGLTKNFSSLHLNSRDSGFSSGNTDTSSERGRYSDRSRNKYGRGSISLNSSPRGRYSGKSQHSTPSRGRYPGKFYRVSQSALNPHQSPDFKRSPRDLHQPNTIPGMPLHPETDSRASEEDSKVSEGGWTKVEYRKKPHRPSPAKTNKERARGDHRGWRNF
Outline: as §1

CDKL1 = CDKL1 (Homo sapiens, UniProt Q00532); settings: CDKL1, 1 μM; read-out: % control
Sequence of CDKL1 (Q00532 whole entry): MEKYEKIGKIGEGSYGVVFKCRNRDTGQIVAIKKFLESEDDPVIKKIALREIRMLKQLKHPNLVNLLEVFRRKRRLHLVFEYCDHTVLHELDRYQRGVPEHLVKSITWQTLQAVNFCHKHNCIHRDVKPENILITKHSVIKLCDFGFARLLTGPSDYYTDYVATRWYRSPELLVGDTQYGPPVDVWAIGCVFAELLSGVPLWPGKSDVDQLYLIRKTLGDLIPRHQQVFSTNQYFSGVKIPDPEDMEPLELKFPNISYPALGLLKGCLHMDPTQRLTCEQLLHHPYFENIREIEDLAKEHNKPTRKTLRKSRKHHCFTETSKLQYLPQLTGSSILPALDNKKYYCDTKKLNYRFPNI
Outline: as §1

[3] = target: T6, ABL1(Q252H)-phosphorylated (Homo sapiens, UniProt P00519, Q252H); settings: read-out: % control
T6 construct: purchased KinomeScan®
Outline: as §1

ZAP70 = target: T7, ZAP70 (Homo sapiens, UniProt P43403); settings: ZAP70, 1 μM; read-out: % control
T7 sequence (P43403 1-619): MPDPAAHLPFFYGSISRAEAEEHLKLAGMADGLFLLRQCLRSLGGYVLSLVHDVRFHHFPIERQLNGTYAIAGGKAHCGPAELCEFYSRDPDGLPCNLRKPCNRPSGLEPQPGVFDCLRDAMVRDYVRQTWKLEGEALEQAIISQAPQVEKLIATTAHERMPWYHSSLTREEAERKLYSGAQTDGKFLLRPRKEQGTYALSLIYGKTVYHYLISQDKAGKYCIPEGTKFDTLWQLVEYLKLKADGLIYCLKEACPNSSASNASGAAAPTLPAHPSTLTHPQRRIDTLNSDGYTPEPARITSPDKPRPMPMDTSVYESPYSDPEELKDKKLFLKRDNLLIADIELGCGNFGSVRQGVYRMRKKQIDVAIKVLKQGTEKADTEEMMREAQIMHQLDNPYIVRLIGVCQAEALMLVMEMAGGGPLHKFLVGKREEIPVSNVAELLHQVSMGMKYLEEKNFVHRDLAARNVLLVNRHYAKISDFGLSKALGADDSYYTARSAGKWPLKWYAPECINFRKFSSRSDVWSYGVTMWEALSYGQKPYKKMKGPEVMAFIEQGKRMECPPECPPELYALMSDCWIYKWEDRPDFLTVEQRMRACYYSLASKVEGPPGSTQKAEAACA
Outline: as §1

MLK3 = MLK3 (Homo sapiens, UniProt Q16584); settings: MLK3, 1 μM; read-out: % control
Sequence of MLK3 (Q16584 whole entry): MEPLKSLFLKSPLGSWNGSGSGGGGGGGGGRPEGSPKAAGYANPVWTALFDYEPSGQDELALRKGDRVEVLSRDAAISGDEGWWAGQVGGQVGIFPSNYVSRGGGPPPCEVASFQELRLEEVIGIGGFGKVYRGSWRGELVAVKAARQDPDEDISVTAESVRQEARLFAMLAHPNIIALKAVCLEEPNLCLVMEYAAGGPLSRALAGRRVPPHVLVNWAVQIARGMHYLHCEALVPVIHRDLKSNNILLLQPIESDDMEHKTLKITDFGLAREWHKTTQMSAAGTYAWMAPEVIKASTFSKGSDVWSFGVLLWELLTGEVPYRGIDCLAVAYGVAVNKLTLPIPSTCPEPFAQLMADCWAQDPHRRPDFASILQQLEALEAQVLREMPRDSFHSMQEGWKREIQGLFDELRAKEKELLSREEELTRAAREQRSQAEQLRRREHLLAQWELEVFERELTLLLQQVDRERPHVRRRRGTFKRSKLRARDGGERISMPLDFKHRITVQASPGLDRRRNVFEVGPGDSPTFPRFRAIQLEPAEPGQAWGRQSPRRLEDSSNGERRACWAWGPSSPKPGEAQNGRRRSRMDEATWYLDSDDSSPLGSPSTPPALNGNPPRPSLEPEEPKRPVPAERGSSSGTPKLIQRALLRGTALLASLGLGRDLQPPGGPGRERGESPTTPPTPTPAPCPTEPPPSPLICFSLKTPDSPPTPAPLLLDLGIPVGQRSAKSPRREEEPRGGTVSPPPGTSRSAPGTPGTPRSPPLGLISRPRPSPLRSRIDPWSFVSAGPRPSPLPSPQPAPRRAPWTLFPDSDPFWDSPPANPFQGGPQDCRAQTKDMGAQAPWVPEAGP
Outline: as §1

Sequence of CSNK1A1 (P48729 whole entry): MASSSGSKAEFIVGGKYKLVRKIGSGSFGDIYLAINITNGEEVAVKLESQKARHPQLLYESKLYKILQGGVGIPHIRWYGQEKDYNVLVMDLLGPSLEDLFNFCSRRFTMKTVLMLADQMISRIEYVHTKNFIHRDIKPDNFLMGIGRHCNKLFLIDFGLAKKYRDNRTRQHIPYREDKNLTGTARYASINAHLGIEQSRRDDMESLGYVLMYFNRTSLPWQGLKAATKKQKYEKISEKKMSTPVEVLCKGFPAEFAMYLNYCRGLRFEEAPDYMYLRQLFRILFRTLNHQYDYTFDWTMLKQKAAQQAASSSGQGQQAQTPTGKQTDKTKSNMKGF

## CNc1c(-c2ccc(C(=O)N3CCC(N4CCOCC4)CC3)cc2)cnc2[nH]cc(Cl)c12 [Compound 96, (4-(3-chloro-4-(methylamino)-1H-pyrrolo[2,3-b]pyridin-5-yl)phenyl)(4-morpholinopiperidin-1-yl)methanone]
CSNK1A1
  remaining binding at 1 µM: 100%
[1]
  remaining binding at 1 µM: 100%
NIK
  remaining binding at 1 µM: 13%
LKB1
  remaining binding at 1 µM: 91%
AMPK-alpha2
  remaining binding at 1 µM: 66%
[2]
  remaining binding at 1 µM: 98%
SGK2
  remaining binding at 1 µM: 30%
ZAK
  remaining binding at 1 µM: 75%
CDKL1
  remaining binding at 1 µM: 78%
[3]
  remaining binding at 1 µM: 100%
ZAP70
  remaining binding at 1 µM: 100%
MLK3
  remaining binding at 1 µM: 99%

## O=C(c1ccc(-c2cnc3[nH]cc(Cl)c3c2NC2CCCC2)cc1)N1CCC(N2CCOCC2)CC1 [Compound 101, (4-(3-chloro-4-(cyclopentylamino)-1H-pyrrolo[2,3-b]pyridin-5-yl)phenyl)(4-morpholinopiperidin-1-yl)methanone]
CSNK1A1
  remaining binding at 1 µM: 89%
[1]
  remaining binding at 1 µM: 10%
NIK
  remaining binding at 1 µM: 88%
LKB1
  remaining binding at 1 µM: 78%
AMPK-alpha2
  remaining binding at 1 µM: 55%
[2]
  remaining binding at 1 µM: 100%
SGK2
  remaining binding at 1 µM: 65%
ZAK
  remaining binding at 1 µM: 86%
CDKL1
  remaining binding at 1 µM: 100%
[3]
  remaining binding at 1 µM: 100%
ZAP70
  remaining binding at 1 µM: 55%
MLK3
  remaining binding at 1 µM: 100%

## CNc1c(-c2cnn([C@H]3CCN(C(C)=O)C[C@@H]3F)c2)cnc2[nH]cc(Cl)c12 [Compound 77, 1-((3S,4S)-4-(4-(3-chloro-4-(methylamino)-1H-pyrrolo[2,3-b]pyridin-5-yl)-1H-pyrazol-1-yl)-3-fluoropiperidin-1-yl)ethan-1-one]
CSNK1A1
  remaining binding at 1 µM: 96%
[1]
  remaining binding at 1 µM: 95%
NIK
  remaining binding at 1 µM: 55%
LKB1
  remaining binding at 1 µM: 88%
AMPK-alpha2
  remaining binding at 1 µM: 99%
[2]
  remaining binding at 1 µM: 79%
SGK2
  remaining binding at 1 µM: 43%
ZAK
  remaining binding at 1 µM: 70%
CDKL1
  remaining binding at 1 µM: 76%
[3]
  remaining binding at 1 µM: 95%
ZAP70
  remaining binding at 1 µM: 100%
MLK3
  remaining binding at 1 µM: 93%
